From ChEMBL document CHEMBL3885881, “DrugMatrix”

Species: Rattus norvegicus
Assay type: toxicity, organism-based, Sprague-Dawley
Conditions: in vivo, ip, route intraperitoneal, vehicle 100 % SALINE; for ABSOLUTE EOSINOPHIL / ABSOLUTE LYMPHOCYTE / ABSOLUTE MONOCYTE / ABSOLUTE SEGMENTED NEUTROPHIL / BASOPHIL / EOSINOPHIL / ERYTHROCYTE COUNT / HEMATOCRIT / HEMOGLOBIN / LEUKOCYTE COUNT / LYMPHOCYTE / MEAN CORPUSCULAR HEMOGLOBIN / MEAN CORPUSCULAR HEMOGLOBIN CONCENTRATION / MEAN CORPUSCULAR VOLUME / MONOCYTE / NEUTROPHIL / NUCLEATED RED BLOOD CELLS / PLATELET COUNT: tissue Blood; for ALANINE AMINOTRANSFERASE / ALBUMIN / ALKALINE PHOSPHATASE / ASPARTATE AMINOTRANSFERASE / BLOOD UREA NITROGEN / CARBON DIOXIDE / CHLORIDE / CHOLESTEROL / CREATINE PHOSPHOKINASE / CREATININE / GLUCOSE / LACTATE DEHYDROGENASE / LIPASE / PHOSPHORUS / POTASSIUM / SODIUM / TOTAL BILIRUBIN / TOTAL PROTEIN / URIC ACID: tissue Plasma
[1] = 0 mg/kg, 6 h, vehicle control, dose level Control, time 0.25 day
[2] = 0 mg/kg, 24 h, vehicle control, dose level Control, time 1 day
[3] = 16 mg/kg, 6 h, dose level Low, time 0.25 day

Description: DrugMatrix - Regimen: Single

## C=CCO [ALLYL ALCOHOL]
[1]
  ABSOLUTE EOSINOPHIL: 63 CELLS/uL
  ABSOLUTE LYMPHOCYTE: 12886.67 CELLS/uL
  ABSOLUTE MONOCYTE: 302.5 CELLS/uL
  ABSOLUTE SEGMENTED NEUTROPHIL: 2997.83 CELLS/uL
  BASOPHIL: 0%
  EOSINOPHIL: 0.33%
  ERYTHROCYTE COUNT: 5.45 x10E6/uL
  HEMATOCRIT: 34.93%
  HEMOGLOBIN: 13.88 G/DL
  LEUKOCYTE COUNT: 16.25 x10E3/uL
  LYMPHOCYTE: 79.17%
  MEAN CORPUSCULAR HEMOGLOBIN: 25.48 pg
  MEAN CORPUSCULAR HEMOGLOBIN CONCENTRATION: 39.77 G/DL
  MEAN CORPUSCULAR VOLUME: 64.13 fL
  MONOCYTE: 1.83%
  NEUTROPHIL: 18.67%
  NUCLEATED RED BLOOD CELLS: 0 /100WBC
  PLATELET COUNT: 1184.67 x10E3/uL
  ALANINE AMINOTRANSFERASE: 35 u/L
  ALBUMIN: 4.25 G/DL
  ALKALINE PHOSPHATASE: 281.83 u/L
  ASPARTATE AMINOTRANSFERASE: 79.5 u/L
  BLOOD UREA NITROGEN: 11.67 mg/dL
  CARBON DIOXIDE: 27 mmol/L
  CHLORIDE: 100.33 MEQ/L
  CHOLESTEROL: 60.67 mg/dL
  CREATINE PHOSPHOKINASE: 275.5 u/L
  CREATININE: 0.13 mg/dL
  GLUCOSE: 162.5 mg/dL
  LACTATE DEHYDROGENASE: 258.83 u/L
  LIPASE: 9.33 u/L
  PHOSPHORUS: 11.42 mg/dL
  POTASSIUM: 6.16 MEQ/L
  SODIUM: 145.08 MEQ/L
  TOTAL BILIRUBIN: 0.18 mg/dL
  TOTAL PROTEIN: 5.73 G/DL
  URIC ACID: 1.58 mg/dL
[2]
  ABSOLUTE EOSINOPHIL: 18.5 CELLS/uL
  ABSOLUTE LYMPHOCYTE: 12859.83 CELLS/uL
  ABSOLUTE MONOCYTE: 190.83 CELLS/uL
  ABSOLUTE SEGMENTED NEUTROPHIL: 1230.83 CELLS/uL
  BASOPHIL: 0%
  EOSINOPHIL: 0.17%
  ERYTHROCYTE COUNT: 5.2 x10E6/uL
  HEMATOCRIT: 33.25%
  HEMOGLOBIN: 13.37 G/DL
  LEUKOCYTE COUNT: 14.3 x10E3/uL
  LYMPHOCYTE: 89.83%
  MEAN CORPUSCULAR HEMOGLOBIN: 25.73 pg
  MEAN CORPUSCULAR HEMOGLOBIN CONCENTRATION: 40.25 G/DL
  MEAN CORPUSCULAR VOLUME: 64 fL
  MONOCYTE: 1.33%
  NEUTROPHIL: 8.67%
  NUCLEATED RED BLOOD CELLS: 0 /100WBC
  PLATELET COUNT: 1075.5 x10E3/uL
  ALANINE AMINOTRANSFERASE: 54.17 u/L
  ALBUMIN: 4.25 G/DL
  ALKALINE PHOSPHATASE: 280.67 u/L
  ASPARTATE AMINOTRANSFERASE: 84.67 u/L
  BLOOD UREA NITROGEN: 13.33 mg/dL
  CARBON DIOXIDE: 26.33 mmol/L
  CHLORIDE: 99.67 MEQ/L
  CHOLESTEROL: 72 mg/dL
  CREATINE PHOSPHOKINASE: 620 u/L
  CREATININE: 0.17 mg/dL
  GLUCOSE: 169.17 mg/dL
  LACTATE DEHYDROGENASE: 189.17 u/L
  LIPASE: 9.67 u/L
  PHOSPHORUS: 10.57 mg/dL
  POTASSIUM: 5.16 MEQ/L
  SODIUM: 142.2 MEQ/L
  TOTAL BILIRUBIN: 0.18 mg/dL
  TOTAL PROTEIN: 5.78 G/DL
  URIC ACID: 1.25 mg/dL
[3]
  ABSOLUTE EOSINOPHIL: 48.67 CELLS/uL
  ABSOLUTE LYMPHOCYTE: 11033.33 CELLS/uL
  ABSOLUTE MONOCYTE: 230.5 CELLS/uL
  ABSOLUTE SEGMENTED NEUTROPHIL: 2270.83 CELLS/uL
  BASOPHIL: 0%
  EOSINOPHIL: 0.33%
  ERYTHROCYTE COUNT: 5.38 x10E6/uL
  HEMATOCRIT: 34.4%
  HEMOGLOBIN: 13.45 G/DL
  LEUKOCYTE COUNT: 13.58 x10E3/uL
  LYMPHOCYTE: 81.17%
  MEAN CORPUSCULAR HEMOGLOBIN: 25.12 pg
  MEAN CORPUSCULAR HEMOGLOBIN CONCENTRATION: 39.12 G/DL
  MEAN CORPUSCULAR VOLUME: 64.18 fL
  MONOCYTE: 1.67%
  NEUTROPHIL: 16.83%
  NUCLEATED RED BLOOD CELLS: 0 /100WBC
  PLATELET COUNT: 997.5 x10E3/uL
  ALANINE AMINOTRANSFERASE: 66.83 u/L
  ALBUMIN: 4.27 G/DL
  ALKALINE PHOSPHATASE: 267.67 u/L
  ASPARTATE AMINOTRANSFERASE: 90 u/L
  BLOOD UREA NITROGEN: 9.33 mg/dL
  CARBON DIOXIDE: 28.5 mmol/L
  CHLORIDE: 100.17 MEQ/L
  CHOLESTEROL: 68 mg/dL
  CREATINE PHOSPHOKINASE: 295 u/L
  CREATININE: 0.14 mg/dL
  GLUCOSE: 153.5 mg/dL
  LACTATE DEHYDROGENASE: 198.83 u/L
  LIPASE: 11.83 u/L
  PHOSPHORUS: 10.27 mg/dL
  POTASSIUM: 5.27 MEQ/L
  SODIUM: 144.05 MEQ/L
  TOTAL BILIRUBIN: 0.1 mg/dL
  TOTAL PROTEIN: 5.6 G/DL
  URIC ACID: 1.15 mg/dL
